Where “and” joins values, the source holds several entries; their conditions need not be identical. Equal values may be shown once. Read-outs that look alike come from different tables or passages of the source.
Key:
rabies virus = assay type: in vivo, mice; conditions: all animals, day 21 after prime
[1] = Zeta potential by Laser Doppler Microelectrophoresis; assay type: physicochemical
[2] = Particle size and PDI by dynamic light scattering (Malvern Zetasizer Nano); assay type: physicochemical
tumor antigen Trp2 [3] = experiment: Trp2 mRNA vaccination i.d.: T-cell response (TNFα+/IFNγ+ CD4+/CD8+); conditions: C57/BL6 mice, day 0, 7, 14
tumor antigen Trp2 [4] = experiment: Trp2 mRNA vaccination i.d.: IgG1/IgG2 endpoint titers (ELISA); conditions: C57/BL6 mice, day 0, 7, 14
[5] = tested on: malaria [NANP]7 peptide or C-terminus peptides; experiment: Malaria CSP mRNA vaccination: ELISA endpoint titers; assay type: in vivo, mice; conditions: CSP mRNA i.m., day 35 post prime, Example 22
Text: The mRNA was further enzymatically capped using ScriptCap™ m7G Capping System (CellScript, Madison,WI., USA) according to the manufacturer's instructions and enzymatically polyadenylated using a commercial polyadenylation kit, resulting in SEQ ID NO:38.
The GN01-LNP formulations were applied on days 0 and 21 intramuscularly (i.m.; musculus tibialis) with doses of RNA, formulations, and control groups as shown in Table Ex-20. A negative control group received vaccinations with an irrelevant RNA, formulated in GN01-LNPs. Serum samples were taken at day 21 and day 35 for ELISA.
ELISA was performed using malaria [NANP]7 peptide or C-terminus peptides for coating. Coated plates were incubated using respective serum dilutions, and binding of specific antibodies to the respective malaria [NANP]7 or C-terminus peptide were detected using biotinylated isotype specific anti-mouse antibodies followed by streptavidin-HRP (horse radish peroxidase) with Amplex™ Red Reagent as substrate. Endpoint titers of antibodies (IgG1, IgG2a) directed against the malaria [NANP]7 or C-terminus peptide were measured by ELISA on day 21 and day 35 post prime. […]
ELISA was performed using malaria [NANP]7 peptide for coating. […] Endpoint titers of antibodies (total IgG or IgG as indicated in the respective Figures) directed against the malaria [NANP]7 peptide were measured by ELISA on day 35 post prime.

For CCCCCCCCC(CCCCCC)COC(=O)CCCC(=O)OCCC1CCN(CCSSCCN2CCC(CCOC(=O)CCCC(=O)OCC(CCCCCC)CCCCCCCC)CC2)CC1 (centres unmarked) [Lipid C2, O1-[2-[1-[2-[2-[4-[2-[5-(2-hexyldecoxy)-5-oxo-pentanoyl]oxyethyl]-1-piperidyl]ethyldisulfanyl]ethyl]-4-piperidyl]ethyl] 05-(2-hexyldecyl) pentanedioate], the VNTs (rabies virus; single i.m. 5 μg RABV-G-mRNA) was > 0.5 IU/ml.

For CCN1CCC(CCOC(=O)C(CCSSCCC(NC(=O)CC(=O)Oc2c(C)c(C)c3c(c2C)CCC(C)(CCCC(C)CCCC(C)CCCC(C)C)O3)C(=O)OCCC2CCN(CC)CC2)NC(=O)CC(=O)Oc2c(C)c(C)c3c(c2C)CCC(C)(CCCC(C)CCCC(C)CCCC(C)C)O3)CC1 (centres unmarked) [Lipid C10, VitE-C4DE-CysPipSS], the zeta potential [1] was 36.00 mV and 26.00 mV, the PDI [2] was 0.50 and 0.34 and the size [2] was 103 nm and 67 nm. The T-cell responses (tumor antigen Trp2 [3]) was “low T-cell responses” and the “IgG1 and IgG2 titers” value (tumor antigen Trp2 [4]) was “stable IgG1 and IgG2 titers”.

For Cc1c(C)c2c(c(C)c1OC(=O)CCC(=O)OCCC1CCN(CCSCCN3CCC(CCOC(=O)CCC(=O)Oc4c(C)c(C)c5c(c4C)CC[C@@](C)(CCC[C@H](C)CCC[C@H](C)CCCC(C)C)O5)CC3)CC1)CC[C@@](C)(CCC[C@H](C)CCC[C@H](C)CCCC(C)C)O2 [Lipid C26, VitE-C4DE-Piperidine-Thioether], the VNTs (rabies virus; single i.m. 1 μg RABV-G-mRNA) was > 0.5 IU/ml and the “IgG1 endpoint titers ([NANP]7 peptide)” value [5] was “very strong humoral immune responses”.
